Columns and labels:
Experiment in all cases: stopped-flow CO2 hydrase assay
Assay type in all cases: biochemical
[1] = target: T1, hCA IV (Homo sapiens, UniProt P22748)
T1 construct: gene CA4; recombinant, obtained in-house as reported earlier
Excerpt: stopped-flow CO2 hydrase assay on hCA IV

[2] = target: T2, hCA I (Homo sapiens, UniProt P00915)
T2 construct: gene CA1; recombinant, obtained in-house as reported earlier; cytosolic
Excerpt: stopped-flow CO2 hydrase assay on hCA I

[3] = target: T3, hCA II (Homo sapiens, UniProt P00918)
T3 construct: gene CA2; recombinant, obtained in-house as reported earlier; cytosolic
Excerpt: stopped-flow CO2 hydrase assay on hCA II

[4] = target: T4, hCA IX (Homo sapiens, UniProt Q16790)
T4 construct: gene CA9; recombinant, obtained in-house as reported earlier
Excerpt: stopped-flow CO2 hydrase assay on hCA IX

T1 sequence (P22748 19-284): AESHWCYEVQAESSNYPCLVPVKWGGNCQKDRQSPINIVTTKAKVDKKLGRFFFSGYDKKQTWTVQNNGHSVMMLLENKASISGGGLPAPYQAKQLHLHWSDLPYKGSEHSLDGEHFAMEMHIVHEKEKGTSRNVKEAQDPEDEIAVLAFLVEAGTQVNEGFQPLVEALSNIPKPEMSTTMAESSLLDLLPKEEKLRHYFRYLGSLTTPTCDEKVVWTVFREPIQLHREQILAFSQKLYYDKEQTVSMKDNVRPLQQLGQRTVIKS
T2 sequence (P00915 2-261): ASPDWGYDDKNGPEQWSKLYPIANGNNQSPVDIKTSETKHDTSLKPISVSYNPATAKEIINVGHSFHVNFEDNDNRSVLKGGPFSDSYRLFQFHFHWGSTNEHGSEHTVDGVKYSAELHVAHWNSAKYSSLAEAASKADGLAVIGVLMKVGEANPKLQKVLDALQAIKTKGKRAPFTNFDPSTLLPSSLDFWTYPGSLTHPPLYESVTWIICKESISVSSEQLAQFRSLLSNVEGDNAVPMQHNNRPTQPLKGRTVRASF

Row | Compound | Ki [1] [nM] | Ki [2] [nM] | Ki [3] [nM] | Ki [4] [nM]
1 | N#Cc1nnn(-c2ccc(S(N)(=O)=O)cc2)c1/N=C/c1ccc(Cl)cc1 [compound 9, (E)-4-(5-((4-chlorobenzylidene)amino)-4-cyano-1H-1,2,3-triazol-1-yl) benzenesulfonamide] | 4670 | 1600 | 94.5 | 307
2 | N#Cc1nnn(-c2ccc(S(N)(=O)=O)cc2)c1NCC(=O)c1ccccc1 [compound 7, 4-(4-cyano-5-((2-oxo-2-phenylethyl)amino)-1H-1,2,3-triazol-1-yl)benzenesulfonamide] | 745 | 1790 | 562 | 283
3 | [N-]=[N+]=Nc1ccc(S(N)(=O)=O)cc1 [compound 2, 4-azido benzenesulfonamide] | > 10000 | – | – | 235
4 | N#Cc1nnn(-c2ccc(S(N)(=O)=O)cc2)c1NC(=O)CCl [compound 5, 2-chloro-N-(4-cyano-1-(4-sulfamoylphenyl)-1H-1,2,3-triazol-5-yl)acetamide] | 1200 | 2550 | 518 | 454
5 | Nc1c(C2=NCCN2)nnn1-c1ccc(S(N)(=O)=O)cc1 [compound 4, 4-(5-amino-4-(4,5-dihydro-1H-imidazol-2-yl)-1H-1,2,3-triazol-1-yl)benzenesulfonamide] | 3190 | 9940 | 6840 | 3710
6 | N#Cc1nnn(-c2ccc(S(N)(=O)=O)cc2)c1N [compound 3, 4-(5-amino-4-cyano-1H-1,2,3-triazol-1-yl)benzenesulfonamide] | 2270 | 1940 | 16.7 | 118
7 | CC(=O)CC(=O)Nc1c(C#N)nnn1-c1ccc(S(N)(=O)=O)cc1 [compound 6, N-(4-cyano-1-(4-sulfamoylphenyl)-1H-1,2,3-triazol-5-yl)-3-oxobutanamide] | 472 | 2860 | 684 | 410

Next, values leading:

Row | Ki [1] [nM] | Ki [2] [nM] | Ki [3] [nM] | Ki [4] [nM] | Compound
8 | 2580 | 2690 | 230 | 407 | N#Cc1c(-c2ccccc2Cl)nc2c(nnn2-c2ccc(S(N)(=O)=O)cc2)c1N [compound 15, 4-(7-amino-5-(2-chlorophenyl)-6-cyano-3H-[1,2,3]triazolo[4,5-b]pyridin-3-yl)benzenesulfonamide]
9 | 3410 | 2920 | 179 | 451 | CN(C)c1ccc(/C=N/c2c(C#N)nnn2-c2ccc(S(N)(=O)=O)cc2)cc1 [compound 10, (E)-4-(4-cyano-5-((4-(dimethylamino)benzylidene)amino)-1H-1,2,3-triazol-1-yl)benzenesulfonamide]
10 | 676 | 1250 | 57 | 46.4 | N#Cc1c(-c2ccccc2)nc2c(nnn2-c2ccc(S(N)(=O)=O)cc2)c1N [compound 14, 4-(7-amino-6-cyano-5-phenyl-3H-[1,2,3]triazolo[4,5-b]pyridin-3-yl)benzenesulfonamide]
11 | 167 | 790 | 957 | 287 | N#Cc1c(N)c2nnn(-c3ccc(S(N)(=O)=O)cc3)c2[nH]c1=O [compound 13, 4-(7-amino-6-cyano-5-oxo-4,5-dihydro-3H-[1,2,3]triazolo[4,5-b]pyridin-3-yl) benzenesulfonamide]
12 | 5030 | 5840 | 2370 | 3810 | N=c1c2nnn(-c3ccc(S(N)(=O)=O)cc3)c2[nH]c(=S)n1-c1ccc(S(=O)(=O)Nc2cnc3ccccc3n2)cc1 [compound 21]
13 | 2610 | 8100 | 90.1 | 105 | Cc1ccc(S(=O)(=O)Nc2c(C#N)nnn2-c2ccc(S(N)(=O)=O)cc2)cc1 [compound 12, N-(4-cyano-1-(4-sulfamoylphenyl)-1H-1,2,3-triazol-5-yl)-4-methylbenzenesulfonamide]
14 | > 10000 | 5140 | 6130 | 1770 | N#Cc1nnn(-c2ccc(S(N)(=O)=O)cc2)c1/N=C/c1ccccc1Cl [compound 8, (E)-4-(5-((2-chlorobenzylidene)amino)-4-cyano-1H-1,2,3-triazol-1-yl)-benzenesulfonamide]
15 | 2270 | 2800 | 589 | 158 | N=c1c2nnn(-c3ccc(S(N)(=O)=O)cc3)c2[nH]c(=O)n1-c1ccccc1 [compound 19, 4-(7-imino-5-oxo-6-phenyl-4,5,6,7-tetrahydro-3H-[1,2,3]triazolo[4,5-d]pyrimidin-3-yl)benzenesulfonamide]

From PMC6171417, “Carbonic anhydrase inhibition with a series of novel benzenesulfonamide-triazole conjugates” (Journal of Enzyme Inhibition and Medicinal Chemistry, 2018)
